The results in this text go back to article PMC6389848, “Characterization and structure‐guided engineering of the novel versatile terpene monooxygenase CYP109Q5 from Chondromyces apiculatus DSM436” (Microbial Biotechnology, 2018).

The structures appear in SMILES notation.

One test deals with T1, CYP109B1 (Bacillus subtilis, UniProt O34374).
T1 construct: gene yjiB; purified enzyme; construct not described in main text
T1 sequence (O34374 1-396): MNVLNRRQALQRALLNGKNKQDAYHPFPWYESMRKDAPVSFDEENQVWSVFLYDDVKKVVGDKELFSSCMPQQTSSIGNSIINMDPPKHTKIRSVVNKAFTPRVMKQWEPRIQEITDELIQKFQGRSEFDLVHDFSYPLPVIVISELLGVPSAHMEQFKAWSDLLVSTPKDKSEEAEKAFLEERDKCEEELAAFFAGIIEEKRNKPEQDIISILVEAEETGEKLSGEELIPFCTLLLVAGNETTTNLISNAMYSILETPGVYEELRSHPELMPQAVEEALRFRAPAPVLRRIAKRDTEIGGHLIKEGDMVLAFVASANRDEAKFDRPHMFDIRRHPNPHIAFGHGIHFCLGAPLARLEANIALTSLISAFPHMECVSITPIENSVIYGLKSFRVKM
In words: in vitro biotransformation, GC-FID / GC-MS. It counts as biochemical. The note with it: redox partners CamA/CamB from Pseudomonas putida, NAD(P)H, 1 mM substrate, 2 μM P450, pH 7.0, 30°C, 2 h.

The target in the next test is T2, CYP109Q5 (Chondromyces apiculatus, UniProt A0A017T5A5).
T2 construct: gene CAP_4855; native gene from genomic DNA in pBAD33, untagged, E. coli JW5510, partially purified by anion exchange
T2 sequence (A0A017T5A5 1-397): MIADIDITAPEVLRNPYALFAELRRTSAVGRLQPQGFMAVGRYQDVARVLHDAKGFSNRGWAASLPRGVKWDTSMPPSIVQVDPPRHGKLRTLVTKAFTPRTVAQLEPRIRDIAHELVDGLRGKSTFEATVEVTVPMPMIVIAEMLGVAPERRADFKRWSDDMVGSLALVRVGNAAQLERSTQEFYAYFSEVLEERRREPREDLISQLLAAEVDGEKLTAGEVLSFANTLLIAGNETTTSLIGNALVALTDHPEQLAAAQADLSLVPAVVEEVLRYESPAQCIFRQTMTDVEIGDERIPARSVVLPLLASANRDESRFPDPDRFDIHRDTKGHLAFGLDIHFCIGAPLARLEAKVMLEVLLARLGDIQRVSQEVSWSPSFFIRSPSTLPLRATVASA
In words: in vitro biotransformation, HPLC. The test is classed as biochemical. To be noted: redox partners CamA/CamB from Pseudomonas putida, NAD(P)H, 1 mM substrate, 2 μM P450, pH 7.0, 30°C.

Regarding `CC(=O)/C=C/C1=C(C)CCCC1(C)C` [compound 1, β‐ionone], the “in vitro biotransformation, GC-FID / GC-MS” value on CYP109B1 is reported as “The reference CYP109B1 hydroxylated β‐ionone exclusively in the allylic position”.
As to `O=C(O)Cc1ccccc1Nc1c(Cl)cccc1Cl` [compound 26, diclofenac], the “in vitro biotransformation, HPLC” value at CYP109Q5 is listed as “CYP109Q5 also exhibited activities towards diclofenac, mefenamic acid, nerolidol, camphor”.
